Measured values reported in patent publication US12590103B2, “Polymorph of EP4 receptor antagonist, preparation method therefor and use thereof” (SHANGHAI YUYAO BIOTECH LTD., priority 2020, dated 2026).

How the values were obtained:
Assay type in all cases: physicochemical
[1] = Volatilization at room temperature, sample checked by 1H NMR; settings: volatilized at room temperature in THF, MeOH-THF and THF-water
Experimental: The structure of the solid sample and the solvent contained in the sample were confirmed by ^1H NMR. The instrument used for ^1H NMR analysis is Bruker Advance 300 equipped with B-ACS 120 automatic sampling system.
Single solvent volatilization: an appropriate amount of initial raw materials of compound I was dissolved in the solvents shown in 1-6 in Table 8 to prepare a solution with a concentration of 8 to 20 mg/mL. The obtained solution was filtered, the filtrate was volatilized at room temperature, and the obtained solid was characterized by XRPD.
Binary solvent volatilization: an appropriate amount of initial raw materials of compound I was dissolved in the solvents shown in 7-25 of Table 8 to prepare a solution with a concentration of 10 mg/mL. After filtration, the resulting filtrate was then mixed with solvent −2; then volatilized at room temperature. A total of 19 solvent systems were used to carry out the volatilization experiment of binary solvent, and the obtained solid was characterized by XRPD.

[2] = Suspension crystal transformation experiment of Polymorphic Form I and Polymorphic Form II; settings: concluded from suspension crystal transformation at RT and 50° C.
Experimental: Suspension crystal transformation experiments were carried out on Polymorph I and polymorph II at room temperature and 50° C. respectively (Table 13). The resulting solid was characterized by XRPD.

[3] = Stability determination at 25° C./92.5% RH (XRPD); settings: 25° C./92.5% RH for 9 days
Experimental: (§1) The solid samples obtained from the experiment were analyzed by D8 advance powder X-ray diffraction analyzer (Bruker). The instrument is equipped with a LynxEye detector, and the ray species is Cu Kα (λ=1.54184 Å). The 2θ scanning range of the sample is from 3° to 40°, and the scanning step is 0.02°. When measuring the sample, the light tube voltage and light tube current were 40 KV and 40 mA respectively.

[4] = DSC heat treatment (heating-cooling-heating cycle) with XRPD; settings: RT to 260° C., to −30° C., to 300° C.
Experimental: The DSC heating-cooling-heating cycle was used to try to find a crystal form with a higher melting point.
During the cooling process, there is an obvious exothermic peak. The initial temperature of the exothermic peak is 206.8° C., which should be caused by crystal transformation. XRPD characterization was performed on three different positions during DSC treatment.

[5] = Dynamic water vapor adsorption (DVS)
Experimental: The instrument model used for dynamic moisture absorption and desorption analysis is IGA Sorp(Hidentity Isochema). The sample measurement adopts gradient mode, the relative humidity range of the test is 0% to 90%, and the humidity increment of each gradient is 10%. The specific parameters are as follows: • Sample temperature: 25° C. • Temperature stability: 0.1° C./min • Flow rate: 250 mL/min • Scan: 2 • Model: F1 • Minimum time: 30 min • Maximum time: 120 min • Waiting cap: 98% • Start: Adsorption Scan • Adsorption humidity (%):0, 10, 20, 30, 40, 50, 60, 70, 80, 90; • Desorption humidity (%):80, 70, 60, 50, 40, 30, 20, 10, 0.
The initial raw material of Compound I was slurried in acetone for 4 hours, filtered and the resulting solid was characterized by XRPD, PLM, TGA, DSC and DVS.

[6] = XRPD characterization after heating (thermal crystal transformation)
Experimental: as §1

In the case of `C[C@H](NC(=O)c1c(Cc2ccc(F)cc2)sc2c1CCOC2)c1ccc(C(=O)O)cc1` [compound I, (S)-4-(1-(2-(4-fluorobenzyl)-4,7-dihydro-5H-thieno [2,3-c]pyran-3-carboxamido)ethyl) benzoic acid], the “chemical stability of the sample (1H NMR)” value [1] was “degraded”.
With `C[C@H](NC(=O)c1c(Cc2ccc(F)cc2)sc2c1CCOC2)c1ccc(C(=O)O)cc1` [polymorphic Form I, (S)-4-(1-(2-(4-fluorobenzyl)-4,7-dihydro-5H-thieno [2,3-c]pyran-3-carboxamido)ethyl) benzoic acid] the “thermodynamic stability of the crystal form” value [2] was “thermodynamically stable crystal form”, the “crystal form by XRPD after storage in high humidity” value [3] was “remain unchanged” and the “crystal form by XRPD at positions 1, 2 and 3 of the DSC treatment” value [4] was “all polymorphic Form I”. For the same compound, the “polymorph of the sample before and after moisture absorption” value ([5]; DVS 0% to 90% RH) was “does not change” and the “moisture absorbed (DVS)” value ([5]; at 80% RH, 25° C.) was < 2%.
With `C[C@H](NC(=O)c1c(Cc2ccc(F)cc2)sc2c1CCOC2)c1ccc(C(=O)O)cc1` [polymorphic Form II, (S)-4-(1-(2-(4-fluorobenzyl)-4,7-dihydro-5H-thieno [2,3-c]pyran-3-carboxamido)ethyl) benzoic acid] the “crystal form by XRPD after heating” value ([6]; heated to 200° C.) was “transformed into polymorphic Form I”.
For `C[C@H](NC(=O)c1c(Cc2ccc(F)cc2)sc2c1CCOC2)c1ccc(C(=O)O)cc1` [polymorphic Form III, (S)-4-(1-(2-(4-fluorobenzyl)-4,7-dihydro-5H-thieno [2,3-c]pyran-3-carboxamido)ethyl) benzoic acid], the “crystal form by XRPD after heating” value ([6]; heated to 240° C.) was “transformed into polymorphic Form I”.
In the case of `C[C@H](NC(=O)c1c(Cc2ccc(F)cc2)sc2c1CCOC2)c1ccc(C(=O)O)cc1` [polymorphic Form IV, (S)-4-(1-(2-(4-fluorobenzyl)-4,7-dihydro-5H-thieno [2,3-c]pyran-3-carboxamido)ethyl) benzoic acid], the “crystal form by XRPD after heating” value ([6]; heated to 200° C.) was “transformed into polymorphic Form I”.
For `C[C@H](NC(=O)c1c(Cc2ccc(F)cc2)sc2c1CCOC2)c1ccc(C(=O)O)cc1` [polymorphic Form V, (S)-4-(1-(2-(4-fluorobenzyl)-4,7-dihydro-5H-thieno [2,3-c]pyran-3-carboxamido)ethyl) benzoic acid], the “crystal form by XRPD after heating” value ([6]; heated to 200° C.) was “converted into the polymorphic Form I”.
For `C[C@H](NC(=O)c1c(Cc2ccc(F)cc2)sc2c1CCOC2)c1ccc(C(=O)O)cc1` [polymorphic Form VI, (S)-4-(1-(2-(4-fluorobenzyl)-4,7-dihydro-5H-thieno [2,3-c]pyran-3-carboxamido)ethyl) benzoic acid], the “crystal form by XRPD after heating” value ([6]; heated to about 236° C.) was “transformed into polymorphic Form I”.
